Results: article PMC6581572 (ChemMedChem, 2019)
Read-outs that look alike come from different tables or passages of the source.

Assays:
[1] = test system: influenza A/Puerto Rico/08/1934 H1N1 expressing mCherry (PR8-mCherry); conditions: read-out: EC50, antiviral activity; cellular assay, previously reported; cited from earlier work
IAV endonuclease = IAV endonuclease (Influenza A virus, UniProt C3W5S0); test: High throughput endonuclease assay; assay type: biochemical, influenza A/California/04/09 H1N1; conditions: for LE kcal/(mol·NHA): ligand efficiency, Tables 1 and 2
[2] = Chemical stability of the isolated compound; assay type: physicochemical; conditions: isolated tetrazole product, two synthetic routes

Structure (SMILES)	IC50 (IAV endonuclease) [nM]	LE kcal/(mol·NHA) (IAV endonuclease; LE = −RTln(IC50)/NHA)	further results
O=c1[nH]c(-c2ccc(F)cc2)c(-c2ccc(-c3nnn[nH]3)cc2)cc1O [Compound 2]			EC50 [1]: 11000 nM
O=c1[nH]c(-c2ccc(-c3nnn[nH]3)cc2)c(Cc2ccc(F)cc2)cc1O [Compound 28, 6-(4-(1H-Tetrazol-5-yl)phenyl)-5-(4-fluorobenzyl)-3-hydroxypyridin-2(1H)-one]	54	0.369 kcal/(mol·NHA)	
Cn1nnnc1-c1ccc(-c2cc(O)c(=O)[nH]c2-c2ccc(F)cc2)cc1 [Compound 13, 6-(4-Fluorophenyl)-3-hydroxy-5-(4-(1-methyl-1H-tetrazol-5-yl)phenyl)pyridin-2(1H)-one]	298	0.331 kcal/(mol·NHA)	
O=c1[nH]c(-c2cccc3ccccc23)c(-c2ccc(-c3nnn[nH]3)cc2)cc1O [Compound 9, 5-(4-(1H-Tetrazol-5-yl)phenyl)-3-hydroxy-6-(naphthalen-1-yl)pyridin-2(1H)-one]		0.354 kcal/(mol·NHA)	
O=c1[nH]c(-c2ccc(-c3nnn[nH]3)cc2)c(Cc2cccc3ccccc23)cc1O [Compound 29, 6-(4-(1H-Tetrazol-5-yl)phenyl)-3-hydroxy-5-(naphthalen-1-ylmethyl)pyridin-2(1H)-one]		0.362 kcal/(mol·NHA)	
N#Cc1ccc(-c2cc(O)c(=O)[nH]c2-c2cccc3ccccc23)cc1 [Compound 8, 4-(5-Hydroxy-2-(naphthalen-1-yl)-6-oxo-1,6-dihydropyridin-3-yl)benzonitrile]	220	0.351 kcal/(mol·NHA)	
O=C(O)c1ccc(-c2[nH]c(=O)c(O)cc2-c2ccc(F)cc2)cc1 [Compound 24, 4-(3-(4-Fluorophenyl)-5-hydroxy-6-oxo-1,6-dihydropyridin-2-yl)benzoic acid]	55	0.415 kcal/(mol·NHA)	
O=c1[nH]c(-c2ccc(F)cc2)c(-c2ccc(-c3cnn[nH]3)cc2)cc1O [Compound 17, 5-(4-(1H-1,2,3-Triazol-5-yl)phenyl)-6-(4-fluorophenyl)-3-hydroxypyridin-2(1H)-one]	25	0.401 kcal/(mol·NHA)	
Cn1nnc(-c2ccc(-c3cc(O)c(=O)[nH]c3-c3ccc(F)cc3)cc2)n1 [Compound 14, 6-(4-Fluorophenyl)-3-hydroxy-5-(4-(2-methyl-2H-tetrazol-5-yl)phenyl)pyridin-2(1H)-one]	138	0.348 kcal/(mol·NHA)	
N#Cc1ccc(-c2cc(O)c(=O)[nH]c2Cc2ccc3ccccc3c2)cc1 [Compound 20, 4-(5-Hydroxy-2-(naphthalen-2-ylmethyl)-6-oxo-1,6-dihydropyridin-3-yl)benzonitrile]	660	0.314 kcal/(mol·NHA)	
O=c1[nH]c(-c2ccc3ccccc3c2)c(-c2ccc(-c3nn[nH]n3)cc2)cc1O [tetrazole derivative of 10, 6-(2-naphthyl)-5-(p-(5-tetrazoyl)phenyl)-3-hydroxypyridin-2(1H)-one]			Stability of the isolated product [2]: unexpectedly unstable
NS(=O)(=O)c1ccc(-c2cc(O)c(=O)[nH]c2-c2ccc(F)cc2)cc1 [Compound 15, 4-(2-(4-Fluorophenyl)-5-hydroxy-6-oxo-1,6-dihydropyridin-3-yl)benzenesulfonamide]	347	0.354 kcal/(mol·NHA)	
N#Cc1ccc(-c2cc(O)c(=O)[nH]c2Cc2cccc3ccccc23)cc1 [Compound 19, 4-(5-Hydroxy-2-(naphthalen-1-ylmethyl)-6-oxo-1,6-dihydropyridin-3-yl)benzonitrile]	114	0.353 kcal/(mol·NHA)	
CC(=O)NS(=O)(=O)c1ccc(-c2cc(O)c(=O)[nH]c2-c2ccc(F)cc2)cc1 [Compound 16, N-((4-(2-(4-Fluorophenyl)-5-hydroxy-6-oxo-1,6-dihydropyridin-3-yl)phenyl)sulfonyl)acetamide]	145	0.335 kcal/(mol·NHA)	
O=C(O)c1ccc(-c2cc(O)c(=O)[nH]c2-c2ccc(F)cc2)cc1 [Compound 11, 4-(2-(4-Fluorophenyl)-5-hydroxy-6-oxo-1,6-dihydropyridin-3-yl)benzoic acid]	11	0.455 kcal/(mol·NHA)	
O=c1[nH]c(Cc2ccc3ccccc3c2)c(-c2ccc(-c3nnn[nH]3)cc2)cc1O [Compound 23, 5-(4-(1H-Tetrazol-5-yl)phenyl)-3-hydroxy-6-(naphthalen-2-ylmethyl)pyridin-2(1H)-one]		0.328 kcal/(mol·NHA)	
O=C(O[C@@H]1Cc2c(O)cc(O)cc2O[C@@H]1c1cc(O)c(O)c(O)c1)c1cc(O)c(O)c(O)c1 [epigallocatechin gallate, reference compound]			ligand efficiency of reference inhibitor (IAV endonuclease; LE = −RTln(IC50)/NHA): 0.249 kcal/(mol·NHA); IC50 (IAV endonuclease; read-out: IC50 of reference inhibitor in this assay, green tea catechin): 1000 nM
O=c1[nH]c(Cc2cccc3ccccc23)c(-c2ccc(-c3nnn[nH]3)cc2)cc1O [Compound 22, 5-(4-(1H-Tetrazol-5-yl)phenyl)-3-hydroxy-6-(naphthalen-1-ylmethyl)pyridin-2(1H)-one]		0.358 kcal/(mol·NHA)	
N#Cc1ccc(-c2[nH]c(=O)c(O)cc2Cc2ccc(F)cc2)cc1 [Compound 25, 4-(3-(4-Fluorobenzyl)-5-hydroxy-6-oxo-1,6-dihydropyridin-2-yl)benzonitrile]	484	0.361 kcal/(mol·NHA)	
O=c1[nH]c(Cc2ccc(F)cc2)c(-c2ccc(-c3nnn[nH]3)cc2)cc1O [Compound 21, 5-(4-(1H-Tetrazol-5-yl)phenyl)-6-(4-fluorobenzyl)-3-hydroxypyridin-2(1H)-one]	26	0.385 kcal/(mol·NHA)	
N#Cc1ccc(-c2[nH]c(=O)c(O)cc2-c2ccc(F)cc2)cc1 [Compound 6]		0.433 kcal/(mol·NHA)	
N#Cc1ccc(-c2[nH]c(=O)c(O)cc2Cc2ccc3ccccc3c2)cc1 [Compound 27, 4-(5-Hydroxy-3-(naphthalen-2-ylmethyl)-6-oxo-1,6-dihydropyridin-2-yl)benzonitrile]	250	0.335 kcal/(mol·NHA)	
N#Cc1ccc(-c2cc(O)c(=O)[nH]c2Cc2ccc(F)cc2)cc1 [Compound 18, 4-(2-(4-Fluorobenzyl)-5-hydroxy-6-oxo-1,6-dihydropyridin-3-yl)benzonitrile]	507	0.360 kcal/(mol·NHA)	
COC(=O)c1ccc(-c2cc(O)c(=O)[nH]c2-c2ccc(F)cc2)cc1 [Compound 12, Methyl 4-(2-(4-fluorophenyl)-5-hydroxy-6-oxo-1,6-dihydropyridin-3-yl)benzoate]	125		
N#Cc1ccc(-c2[nH]c(=O)c(O)cc2Cc2cccc3ccccc23)cc1 [Compound 26, 4-(5-Hydroxy-3-(naphthalen-1-ylmethyl)-6-oxo-1,6-dihydropyridin-2-yl)benzonitrile]	173	0.343 kcal/(mol·NHA)	
N#Cc1ccc(-c2cc(O)c(=O)[nH]c2-c2ccc(F)cc2)cc1 [Compound 1]		0.409 kcal/(mol·NHA)	
N#Cc1ccc(-c2cc(O)c(=O)[nH]c2-c2ccc3ccccc3c2)cc1 [Compound 10, 4-(5-Hydroxy-2-(naphthalen-2-yl)-6-oxo-1,6-dihydropyridin-3-yl)benzonitrile]		0.330 kcal/(mol·NHA)	
O=c1[nH]c(-c2ccc(-c3nnn[nH]3)cc2)c(Cc2ccc3ccccc3c2)cc1O [Compound 30, 6-(4-(1H-Tetrazol-5-yl)phenyl)-3-hydroxy-5-(naphthalen-2-ylmethyl)pyridin-2(1H)-one]		0.324 kcal/(mol·NHA)	
O=c1[nH]c(-c2ccc(-c3nnn[nH]3)cc2)c(-c2ccc(F)cc2)cc1O [Compound 7]		0.403 kcal/(mol·NHA)	
